Data reported in patent US7943156B2, “Use of peptides of general formula I X-SEQ ID No.1-Y in the preparation of cosmetic compositions which are intended to improve the firmness of the skin by increasing cell adhesion” (Lipotec, S.A., priority 2004, dated 2011).
Entries after “also recorded” stand apart in the source; their conditions may differ. No end group written: not given here. *: point of attachment. Palmitoyl = CCCCCCCCCCCCCCCC(=O)*

Legend:
[1] = tested on: human epidermal keratinocytes (HEKa); assay: In vitro cell adhesion of keratinocytes to peptide-coated microwells (calcein fluorescence); format: cell-based; conditions: for cell adhesion of keratinocytes: HEKa, peptide-coated microwells 0.5-250 μg/ml, 4 concentrations, 2 hours
Description: 1-Y and the comparative evaluation between them.
The cell cultures used in the following example are human epidermal keratinocytes (HEKa) in the presence of specific growth factors of keratinocytes.
First, 96 microwells are placed in a plate, they are coated with 50 μL of a peptide of general formula X-SEQ ID NO.1-Y (0.5-250 μg/ml per microwell) in distilled water and dried overnight at room temperature.
On the other hand, control assays are carried out with microwells coated with 40 μM of BSA (bovine serum albumin) so as to evaluate non-specific cell adhesion.
All the microwells have been washed with 200 μL of PBS (phosphate buffered saline) and blocked for 1 hour with 1% BSA in PBS at 37° C.
Trypsin was added to human cutaneous keratinocytes, and they were marked for 30 minutes at 37° C. in calcein-AM at a concentration of 5 μM and they were finally washed three times in Epilife® medium.
The marked cells (4.5×10^4/microwell) were added to the plate previously coated with the X-SEQ ID No. 1-Y peptide and were incubated for 2 hours at 37° C. in an atmosphere humidified with 5% CO2.
The cell adhesion was assessed by the measurement of calcein fluorescence before and after the washing.
The percentage of cell adhesion was determined by dividing the fluorescence of adhered cells by the total fluorescence of cells added to each microwell.
The cell adhesion promoted by the X-SEQ ID No. 1-Y peptides was calculated with respect to the non-specific adhesion of the cells to BSA.

laminin V = assay: Immunostaining of laminin V expression in human fibroblasts and keratinocytes; format: cell-based; conditions: human fibroblasts, immunofluorescence, vs control without peptide
Text: (§1) Immunostaining assays have been carried out in human fibroblasts and keratinocytes in order to determine if SEQ ID No. 2 has the ability to enhance the expression of α6 integrin and laminin V (FIGS. 2, 3, 4, and 5).
(§2) The assay uses a primary (monoclonal) antibody binding to the protein which is intended to be detected (integrin or laminin), and a secondary (polyclonal) antibody binding to the complex between the protein and the primary antibody. The secondary antibody is coupled to a fluorescent compound (FITC-Fluorescein Isothiocyanate).
(§3) FITC is illuminated with filtered light at 495 nm (absorption wavelength) and the light emitted by the dye is detected at 528 nm (emission wavelength).

beta 1 integrin = assay: Immunostaining, production of beta 1 integrin; format: cell-based, human
human fibroblasts = assay: Cell adhesion in in vitro fibroblast culture; format: cell-based; conditions: vs untreated
Text: The adhesion process at a cellular level has been determined by means of a in vitro fibroblast culture in the second embodiment assay.
FIGS. 6 and 7 show a uniform coating of the assay microwell and the growth and distribution of the fibroblasts that are more related with cell adhesion than with cell proliferation.

α6 integrin = assay: Immunostaining of α6 integrin expression in human fibroblasts and keratinocytes; format: cell-based
Text: as §1, §2, §3

Pal-SEQ ID No. 1: X-SEQ ID No. 1-Y peptide where X is the palmitoyl radical (Palmitoyl-IKVAV; listed as Homo sapiens)
cell adhesion of keratinocytes [1]: Stimulation of keratinocyte adhesion | cell adhesion of keratinocytes ([1]; listed as Pal-SEQ ID NO.1): increase of cell adhesion

SEQ ID No. 1: peptide of general formula I in which X is hydrogen and Y is hydroxyl (H-IKVAV-OH; listed as Homo sapiens)
cell adhesion of keratinocytes [1]: Stimulation of keratinocyte adhesion | cell adhesion of keratinocytes ([1]; listed as SEQ ID NO. 1): increase of cell adhesion

SEQ ID No. 2-amino: variant of SEQ ID No. 2 with Y amino (SEQ ID NO. 2-NH2) (SIKVAV-NH2; listed as Homo sapiens)
cell adhesion of keratinocytes [1]: increase of cell adhesion | keratinocyte cell adhesion, SEQ ID No. 2 vs SEQ ID No. 2-amino (FIG. 10) ([1]; small doses (0.5 μg/ml)): greater

SEQ ID No. 2: peptide of general formula I in which X is serine and Y is hydroxyl; laminin-derived (SIKVAV-OH; listed as Homo sapiens)
cell adhesion of keratinocytes [1]: Stimulation of keratinocyte adhesion | cell adhesion of keratinocytes ([1]; listed as SEQ ID NO. 2): increase of cell adhesion | cell adhesion of keratinocytes ([1]; listed as SEQ ID NO.2): increase of cell adhesion | keratinocyte cell adhesion, comparison between peptides (FIG. 9) ([1]; extrapolated results of FIG. 9, SEQ ID No. 2 vs SEQ ID No. 1 vs Pal-SEQ ID No. 1): greater adhesion | keratinocyte cell adhesion, SEQ ID No. 2 vs SEQ ID No. 2-amino (FIG. 10) ([1]; larger doses): greater adhesion | expression of laminin V (laminin V): increase of the expression; also recorded: significant increase | expression of laminin V (laminin V; listed as SEQ ID NO.2): stimulation of the expression | production of beta 1 integrin (beta 1 integrin): No variation | cell adhesion in human fibroblasts (human fibroblasts): promoting cell adhesion and migration | expression of α6 integrin (α6 integrin; human fibroblasts, immunofluorescence, vs control without peptide): increase of the expression; also recorded: significant increase | expression of α6 integrin (α6 integrin; human fibroblasts, immunofluorescence, vs control without peptide, listed as SEQ ID NO.2): stimulation of the expression | expression of α6 integrin (α6 integrin; keratinocytes, immunostaining): not in keratinocytes
